Laboratory results from US10934310B2, “Inhibitors of Bruton's tyrosine kinase and method of their use” (JANSSEN PHARMACEUTICA NV, priority 2015, dated 2021).

Biological target: unphosphorylated-BTK kinase domain (UP-BTK), GST-tagged human BTK (389-659aa) (Homo sapiens (Human), UniProt Q06187)
Test: BTK Kinase Lanthascreen Binding Assay
Settings: for BTK_I_binding pIC50: pIC50 = negative log of the IC50 in molar; for IC50: read-out: BTK_I_binding pIC50 (converted)
Protocol: BTK Kinase Lanthascreen Binding Assay:
A BTK kinase lanthascreen binding assay monitors compound binding to unphosphorylated-BTK kinase domain (UP-BTK), by competing with a fluorescent labeled tracer. […] Data were analyzed using Xlfit™ version 5.3 from ID Business Solutions (Guildford), Microsoft Excel add-in. pIC50 refers to the negative log of the IC50 in molar.

[1] = compound, 50 nM Tracer 236, 2 nM anti-GST antibody, 60 minutes
[2] = Lanthascreen binding, 60 minutes incubation

unphosphorylated-BTK kinase domain (UP-BTK), GST-tagged human BTK (389-659aa), sequence (Q06187 389-659): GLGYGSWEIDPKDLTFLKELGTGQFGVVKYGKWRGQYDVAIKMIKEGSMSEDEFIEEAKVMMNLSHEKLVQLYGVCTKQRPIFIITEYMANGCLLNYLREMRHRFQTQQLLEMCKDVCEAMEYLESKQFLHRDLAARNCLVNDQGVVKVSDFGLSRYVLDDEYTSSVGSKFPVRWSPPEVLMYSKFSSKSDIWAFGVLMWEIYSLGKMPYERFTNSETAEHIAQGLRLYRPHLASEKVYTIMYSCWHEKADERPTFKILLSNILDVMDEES

| Compound | BTK_I_binding pIC50 [1] | other results |
| --- | --- | --- |
| CC(=O)N[C@H]1CC[C@@H](NC(=O)c2sc3nccc4c3c2NC(=O)N4c2ccc(Oc3ccccc3)cc2C)CC1 (single isomer, unassigned) [Example 95, N-((1S,4S)-4-Acetamidocyclohexyl)-5-(*R)-(2-methyl-4-phenoxyphenyl)-4-oxo-4,5-dihydro-3H-1-thia-3,5,8-triazaacenaphthylene-2-carboxamide] | 6.14 | – |
| C=CC(=O)N[C@H]1CCC[C@H]1NC(=O)c1sc2nccc3c2c1NC(=O)N3c1ccc(OC2CCOCC2)cc1 [Example 234, N-((1R,2S)-2-Acrylamidocyclopentyl)-4-oxo-5-(4-((tetrahydro-2H-pyran-4-yl)oxy)phenyl)-4,5-dihydro-3H-1-thia-3,5,8-triazaacenaphthylene-2-carboxamide] | 6.76 | – |
| Cc1nc(Oc2ccccc2)ccc1N1C(=O)Nc2c(C(=O)N[C@@H]3CCC[C@H]3N)sc3nccc1c23 (single isomer, unassigned) [Example 339, N-((1R,2R)-2-Aminocyclopentyl)-5-(*S)-(2-methyl-6-phenoxypyridin-3-yl)-4-oxo-4,5-dihydro-3H-1-thia-3,5,8-triazaacenaphthylene-2-carboxamide] | – | BTK_I_binding pIC50 [2]: 6.28 |
| CC(C)c1cc(N2C(=O)Nc3c(C(=O)N[C@@H]4CCC[C@@H]4N)sc4nccc2c34)ccn1 [Example 270, N-((1R,2S)-2-Aminocyclopentyl)-5-(2-isopropylpyridin-4-yl)-4-oxo-4,5-dihydro-3H-1-thia-3,5,8-triazaacenaphthylene-2-carboxamide] | – | IC50: > 1000 nM |
| Cc1cc(Oc2ccccc2)ncc1N1C(=O)Nc2c(C(=O)N[C@@H]3CCC[C@H]3N)sc3nccc1c23 (single isomer, unassigned) [Example 233] | 6.85 | – |
| CN[C@@H]1CCCC[C@@H]1NC(=O)c1sc2nccc3c2c1NC(=O)N3c1ccc(Oc2ccccc2)cc1C [Example 50, 5-(2-Methyl-4-phenoxyphenyl)-N-((1S,2R)-2-(methylamino)cyclohexyl)-4-oxo-4,5-dihydro-3H-1-thia-3,5,8-triazaacenaphthylene-2-carboxamide] | 6.07 | – |
| CCC(=O)N[C@H]1CCC[C@@H]1NC(=O)c1sc2nccc3c2c1NC(=O)N3c1ccc(Oc2ccccc2)cc1C [Example 45, 5-(2-Methyl-4-phenoxyphenyl)-4-oxo-N-((1S,2S)-2-propionamidocyclopentyl)-4,5-dihydro-3H-1-thia-3,5,8-triazaacenaphthylene-2-carboxamide] | 6.14 | – |
| Cc1cc(Oc2ccccc2)ccc1N1C(=O)Nc2c(C(=O)N[C@@H]3CCC[C@H]3N)sc3nccc1c23 (single isomer, unassigned) [Example 120, N-((1R,2R)-2-Aminocyclopentyl)-5-(*S)-(2-methyl-4-phenoxyphenyl)-4-oxo-4,5-dihydro-3H-1-thia-3,5,8-triazaacenaphthylene-2-carboxamide] | 7.54 | – |
| C=CC(=O)N[C@H]1CCCC[C@H]1NC(=O)c1sc2nccc3c2c1NC(=O)N3c1cnc(OC2CCC2)cc1C (single isomer, unassigned) [Example 266, N-((1R,2S)-2-Acrylamidocyclohexyl)-5-(*R)-(6-cyclobutoxy-4-methylpyridin-3-yl)-4-oxo-4,5-dihydro-3H-1-thia-3,5,8-triazaacenaphthylene-2-carboxamide] | 6.21 | – |
| C=CC(=O)N[C@H]1CCC[C@H]1NC(=O)c1sc2nccc3c2c1NC(=O)N3c1ccc(Oc2cncnc2)nc1C [Example 492, N-((1R,2S)-2-Acrylamidocyclopentyl)-5-(2-methyl-6-(pyrimidin-5-yloxy)pyridin-3-yl)-4-oxo-4,5-dihydro-3H-1-thia-3,5,8-triazaacenaphthylene-2-carboxamide] | – | BTK_I_binding pIC50 [2]: 6.66 |
| Cc1cc(Oc2ccccc2)ccc1N1C(=O)Nc2c(C(=O)N[C@H]3CCC[C@@H]3O)sc3nccc1c23 [Example 20, N-((1S,2S)-2-Hydroxycyclopentyl)-5-(2-methyl-4-phenoxyphenyl)-4-oxo-4,5-dihydro-3H-1-thia-3,5,8-triazaacenaphthylene-2-carboxamide] | 7.02 | – |
| CC(C)(C)OC(=O)N[C@@H]1CC[C@H](NC(=O)c2sc3nccc4c3c2NC(=O)N4c2ccc(Oc3ccccc3)cc2)C1 [Example 150, tert-Butyl ((1R,3S)-3-(4-oxo-5-(4-phenoxyphenyl)-4,5-dihydro-3H-1-thia-3,5,8-triazaacenaphthylene-2-carboxamido)cyclopentyl)carbamate] | 6.40 | – |
| C=CC(=O)N[C@H]1CCC[C@H]1NC(=O)c1sc2nccc3c2c1NC(=O)N3c1cccc(-c2ccccc2)c1 [Example 193, 5-([1,1′-Biphenyl]-3-yl)-N-((1R,2S)-2-acrylamidocyclopentyl)-4-oxo-4,5-dihydro-3H-1-thia-3,5,8-triazaacenaphthylene-2-carboxamide] | 8.09 | – |
| C=CC(=O)N[C@H]1CCC[C@H]1NC(=O)c1sc2nccc3c2c1NC(=O)N3c1cnc(OC(C)C)cc1C (single isomer, unassigned) [Example 426, N-((1R,2S)-2-Acrylamidocyclopentyl)-5-(*S)-(6-isopropoxy-4-methylpyridin-3-yl)-4-oxo-4,5-dihydro-3H-1-thia-3,5,8-triazaacenaphthylene-2-carboxamide] | – | BTK_I_binding pIC50 [2]: 8.20 |
| C=CC(=O)N[C@@H]1CCCC[C@H]1NC(=O)c1sc2nccc3c2c1NC(=O)N3c1ccc(Oc2ccccc2)cn1 [Example 218, N-((1R,2R)-2-Acrylamidocyclohexyl)-4-oxo-5-(5-phenoxypyridin-2-yl)-4,5-dihydro-3H-1-thia-3,5,8-triazaacenaphthylene-2-carboxamide] | 6.76 | – |
| CCC(=O)N[C@@H]1CC[C@H](NC(=O)c2sc3nccc4c3c2NC(=O)N4c2ccc(Oc3ccccc3)cc2C)C1 [Example 69, 5-(2-Methyl-4-phenoxyphenyl)-4-oxo-N-((1S,3R)-3-propionamidocyclopentyl)-4,5-dihydro-3H-1-thia-3,5,8-triazaacenaphthylene-2-carboxamide] | 7.73 | – |
| CCC(=O)N[C@H]1CCCC[C@H]1NC(=O)c1sc2nccc3c2c1NC(=O)N3c1ccc(Oc2ccccc2)nc1C (single isomer, unassigned) [Example 343, 5-(*S)-(2-Methyl-6-phenoxypyridin-3-yl)-4-oxo-N-((1R,2S)-2-propionamidocyclohexyl)-4,5-dihydro-3H-1-thia-3,5,8-triazaacenaphthylene-2-carboxamide] | – | BTK_I_binding pIC50 [2]: 6.11 |
| CC(=O)N[C@@H]1CCCC[C@H]1NC(=O)c1sc2nccc3c2c1NC(=O)N3c1ccc(Oc2ccccc2)nc1C (single isomer, unassigned) [Example 362, N-((1R,2R)-2-Acetamidocyclohexyl)-5-(*S)-(2-methyl-6-phenoxypyridin-3-yl)-4-oxo-4,5-dihydro-3H-1-thia-3,5,8-triazaacenaphthylene-2-carboxamide] | – | IC50: > 1000 nM |
| CNC1CCC(NC(=O)c2sc3nccc4c3c2NC(=O)N4c2ccc(Oc3ccccc3)cc2C)CC1 (centres unmarked) [Example 63, 5-(2-Methyl-4-phenoxyphenyl)-N-(4-(methylamino)cyclohexyl)-4-oxo-4,5-dihydro-3H-1-thia-3,5,8-triazaacenaphthylene-2-carboxamide] | 6.85 | – |
| CC(=O)N[C@H]1CCC[C@@H]1NC(=O)c1sc2nccc3c2c1NC(=O)N3c1ccc(Oc2ccccc2)cc1C [Example 40, N-((1S,2S)-2-Acetamidocyclopentyl)-5-(2-methyl-4-phenoxyphenyl)-4-oxo-4,5-dihydro-3H-1-thia-3,5,8-triazaacenaphthylene-2-carboxamide] | 6.40 | – |
| C=CC(=O)N[C@H]1CCCC[C@H]1NC(=O)c1sc2nccc3c2c1NC(=O)N3c1ccc(Oc2ccccn2)cc1 [Example 442, N-((1R,2S)-2-Acrylamidocyclohexyl)-4-oxo-5-(4-(pyridin-2-yloxy)phenyl)-4,5-dihydro-3H-1-thia-3,5,8-triazaacenaphthylene-2-carboxamide] | – | BTK_I_binding pIC50 [2]: 6.84 |
| C=CC(=O)N[C@@H]1CCC[C@H](NC(=O)c2sc3nccc4c3c2NC(=O)N4c2ccc(OC(C)C)cc2C)C1 (single isomer, unassigned) [Example 190, N-((1S,3R)-3-Acrylamidocyclohexyl)-5-(*R)-(4-isopropoxy-2-methylphenyl)-4-oxo-4,5-dihydro-3H-1-thia-3,5,8-triazaacenaphthylene-2-carboxamide] | 7.10 | – |
| C=CC(=O)N[C@H]1CCC[C@H]1NC(=O)c1sc2nccc3c2c1NC(=O)N3c1cnc(Oc2ccccc2)cn1 [Example 201, N-((1R,2S)-2-Acrylamidocyclopentyl)-4-oxo-5-(5-phenoxypyrazin-2-yl)-4,5-dihydro-3H-1-thia-3,5,8-triazaacenaphthylene-2-carboxamide] | 8.32 | – |
| Cc1cc(OC2CCOCC2)ccc1N1C(=O)Nc2c(C(=O)N[C@@H]3CCC[C@@H]3N)sc3nccc1c23 [Example 287, N-((1R,2S)-2-Aminocyclopentyl)-5-(2-methyl-4-((tetrahydro-2H-pyran-4-yl)oxy)phenyl)-4-oxo-4,5-dihydro-3H-1-thia-3,5,8-triazaacenaphthylene-2-carboxamide] | – | IC50: > 1000 nM |
| C=CC(=O)N[C@@H]1CCC[C@H]1NC(=O)c1sc2nccc3c2c1NC(=O)N3c1ncc(Oc2ccccc2)cn1 [Example 307, N-((1R,2R)-2-Acrylamidocyclopentyl)-4-oxo-5-(5-phenoxypyrimidin-2-yl)-4,5-dihydro-3H-1-thia-3,5,8-triazaacenaphthylene-2-carboxamide] | – | BTK_I_binding pIC50 [2]: 7.58 |
| CCC(=O)N[C@H]1CCCC[C@H]1NC(=O)c1sc2nccc3c2c1NC(=O)N3c1ccc(Oc2ccccc2)cc1C (single isomer, unassigned) [Example 380, 5-(*S)-(2-Methyl-4-phenoxyphenyl)-4-oxo-N-((1R,2S)-2-propionamidocyclohexyl)-4,5-dihydro-3H-1-thia-3,5,8-triazaacenaphthylene-2-carboxamide] | – | BTK_I_binding pIC50 [2]: 7.20 |
